# Experimental data published in patent publication US8883827B2, “Azole derivatives as WTN pathway inhibitors” (Oslo University Hospital HF, priority 2009, dated 2014).
# Legend:
# SW480 cells [1] = test: Illumina microarray gene expression analysis; assay type: cell-based; conditions: x at 25 μM only
# Experimental: A microarray analysis using an Illumina® array was performed in triplicate to investigate differential gene expression in cells treated with a Wnt pathway inhibitor. […] In vitro transcription reactions were incubated overnight (14 hr). Labeled cRNA was hybridized to Illumina® Human-6 v3 BeadChips (Illumina, San Diego, Calif.) at 58° C. overnight, according to the Illumina® Whole-Genome Gene Expression Protocol for BeadStation (Doc. #11226030.rev.C, Illumina Inc.). The hybridized BeadChip was stained with streptavidin-Cy3 (Amersham™, PA43001) for visualization and scanned with an Illumina® BeadArray Reader. The scanned images were imported into BeadStudio 3.1.3.0 (Illumina Inc) for extraction and quality control. A criterion of 0.5-fold change in expression was applied to the analysis. […] A list of differentially expressed genes of interest is given below in tables 1 and 2. […] Many known Wnt target genes (column 3) were influenced in treated cells. Some genes were influenced that are also affected in Ls174T colorectal cancer cells expressing an inducible dominant negative form of TCF-4 (column 4) (van de Wetering et al., Mol. Cell. Biol. (2008) 28(8), p. 2732-44). Other influenced genes that are important for cell cycle control and other genes correlated to regulated canonical Wnt signaling are also shown. The degree of modulation (column 5) is an indication of the degree of change between the non-treated and compound No. 1 treated samples.
# SW480 cells [2] = test: MTS cell growth assay (Example 27); assay type: cell-based; conditions: Homo sapiens, 72 h, read-out: IC50, reduction of proliferation
# Experimental: Thus, the effect of compound No. 1 on cell growth was tested in SW480 cell lines using MTS analysis (MTS is the colorimetric substrate 3-(4,5-dimethylthiazol-2-yl)-5-(3-carboxymethoxyphenyl)-2-(4-sulfophenyl)-2H-tetrazolium).
# 3000 cells were seeded on 96 well plates in quadruplicates for each sample. The following day, cell culture medium was mixed with compound No. 1 in various concentrations or with 0.5% DMSO vehicle (control) and added to the wells.
# Eight wells of seeded control cells, defining incubation time 0 (t0), were incubated with 20 μl substrate in 100 μl phenol-free D-MEM (Invitrogen) for 3 hours, as described in the CellTiter 96® AQueous Non-Radioactive Cell Proliferation Assay (MTS) protocol (Promega). The A490 value was recorded.
# Samples were measured after 72 hours. The following formula was used to determine the single well relative A490 sample values: ((Sample A490−Average A490 to)×100)/(Average A490 0.5% DMSO control−Average A490 t0).
# PTP MEG1(h) = molecular target: T1, PTP MEG1(h) (Homo sapiens, UniProt P29074); test: Phosphatase screen; assay type: biochemical; conditions: 0.1% DMSO control = 100%
# T1 construct: purchased Millipore (KinaseProfiler service)
# T1 sequence (P29074 whole entry): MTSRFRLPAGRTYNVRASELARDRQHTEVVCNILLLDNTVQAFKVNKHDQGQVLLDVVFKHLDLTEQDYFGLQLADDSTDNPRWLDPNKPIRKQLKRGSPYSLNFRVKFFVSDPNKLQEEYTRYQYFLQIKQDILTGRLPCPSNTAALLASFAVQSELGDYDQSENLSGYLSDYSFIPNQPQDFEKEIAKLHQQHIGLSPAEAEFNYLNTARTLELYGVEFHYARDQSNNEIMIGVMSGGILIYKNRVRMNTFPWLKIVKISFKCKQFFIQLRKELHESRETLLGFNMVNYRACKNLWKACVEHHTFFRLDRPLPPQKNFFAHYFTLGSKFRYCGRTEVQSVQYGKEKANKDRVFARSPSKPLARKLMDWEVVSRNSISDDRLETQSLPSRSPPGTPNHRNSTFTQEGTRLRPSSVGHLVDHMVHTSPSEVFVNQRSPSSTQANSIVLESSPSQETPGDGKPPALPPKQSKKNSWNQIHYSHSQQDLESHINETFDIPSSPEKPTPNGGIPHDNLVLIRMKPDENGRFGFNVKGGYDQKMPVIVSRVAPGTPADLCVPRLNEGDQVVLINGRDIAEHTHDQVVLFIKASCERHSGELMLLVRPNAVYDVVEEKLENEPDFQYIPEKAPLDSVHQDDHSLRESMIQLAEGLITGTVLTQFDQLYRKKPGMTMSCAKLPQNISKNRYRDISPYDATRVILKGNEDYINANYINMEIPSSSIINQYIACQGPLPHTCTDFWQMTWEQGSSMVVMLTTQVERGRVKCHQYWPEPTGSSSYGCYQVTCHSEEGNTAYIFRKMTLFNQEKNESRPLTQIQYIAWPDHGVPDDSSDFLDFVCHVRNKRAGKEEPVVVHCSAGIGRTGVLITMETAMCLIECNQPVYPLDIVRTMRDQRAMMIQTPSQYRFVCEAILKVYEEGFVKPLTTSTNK
# CDK6/cyclinD3(h) = molecular target: T2, CDK6/cyclinD3(h) (Homo sapiens, UniProt Q00534); test: Kinase screen; assay type: biochemical; conditions: 0.1% DMSO control = 100%
# T2 construct: purchased Millipore (KinaseProfiler service)
# T2 sequence (Q00534 whole entry): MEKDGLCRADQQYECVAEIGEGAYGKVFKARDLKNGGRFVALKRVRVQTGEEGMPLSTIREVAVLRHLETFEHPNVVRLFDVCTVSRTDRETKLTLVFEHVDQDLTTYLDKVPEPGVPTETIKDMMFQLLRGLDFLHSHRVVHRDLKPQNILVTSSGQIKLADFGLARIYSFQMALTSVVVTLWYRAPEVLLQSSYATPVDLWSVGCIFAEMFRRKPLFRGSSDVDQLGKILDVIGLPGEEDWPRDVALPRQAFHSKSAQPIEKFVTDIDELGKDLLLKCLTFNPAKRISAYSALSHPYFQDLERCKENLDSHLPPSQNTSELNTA
# T2 sequence (P30281 whole entry partner): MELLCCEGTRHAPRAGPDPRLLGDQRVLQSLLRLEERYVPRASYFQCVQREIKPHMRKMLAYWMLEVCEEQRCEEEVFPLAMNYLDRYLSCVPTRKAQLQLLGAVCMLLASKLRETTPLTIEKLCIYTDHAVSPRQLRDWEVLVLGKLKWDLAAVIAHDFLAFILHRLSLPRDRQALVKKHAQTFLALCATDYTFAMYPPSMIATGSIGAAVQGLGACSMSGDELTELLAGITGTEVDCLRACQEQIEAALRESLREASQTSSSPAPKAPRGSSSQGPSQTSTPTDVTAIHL
# eEF-2K(h) = molecular target: T3, eEF-2K(h) (Homo sapiens, UniProt O00418); test: Kinase screen; assay type: biochemical; conditions: 0.1% DMSO control = 100%
# T3 construct: purchased Millipore (KinaseProfiler service)
# IRAK4(h) = molecular target: T4, IRAK4(h) (Homo sapiens, UniProt Q9NWZ3); test: Kinase screen; assay type: biochemical; conditions: 0.1% DMSO control = 100%
# T4 construct: purchased Millipore (KinaseProfiler service)
# T4 sequence (Q9NWZ3 whole entry): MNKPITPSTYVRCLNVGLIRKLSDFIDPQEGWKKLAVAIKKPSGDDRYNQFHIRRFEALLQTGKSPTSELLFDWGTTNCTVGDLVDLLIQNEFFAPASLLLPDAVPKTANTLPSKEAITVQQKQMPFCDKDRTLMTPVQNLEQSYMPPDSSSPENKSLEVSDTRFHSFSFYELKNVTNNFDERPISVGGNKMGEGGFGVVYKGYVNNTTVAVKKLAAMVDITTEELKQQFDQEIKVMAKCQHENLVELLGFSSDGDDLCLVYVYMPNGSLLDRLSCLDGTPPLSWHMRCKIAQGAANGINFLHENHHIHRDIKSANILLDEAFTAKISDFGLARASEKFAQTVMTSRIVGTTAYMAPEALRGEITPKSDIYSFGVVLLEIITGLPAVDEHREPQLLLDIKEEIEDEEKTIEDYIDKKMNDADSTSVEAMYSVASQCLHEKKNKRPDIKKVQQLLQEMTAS
# JNK3(h) = molecular target: T5, JNK3(h) (Homo sapiens, UniProt P53779); test: Kinase screen; assay type: biochemical; conditions: 0.1% DMSO control = 100%
# T5 construct: purchased Millipore (KinaseProfiler service)
# T5 sequence (P53779 whole entry): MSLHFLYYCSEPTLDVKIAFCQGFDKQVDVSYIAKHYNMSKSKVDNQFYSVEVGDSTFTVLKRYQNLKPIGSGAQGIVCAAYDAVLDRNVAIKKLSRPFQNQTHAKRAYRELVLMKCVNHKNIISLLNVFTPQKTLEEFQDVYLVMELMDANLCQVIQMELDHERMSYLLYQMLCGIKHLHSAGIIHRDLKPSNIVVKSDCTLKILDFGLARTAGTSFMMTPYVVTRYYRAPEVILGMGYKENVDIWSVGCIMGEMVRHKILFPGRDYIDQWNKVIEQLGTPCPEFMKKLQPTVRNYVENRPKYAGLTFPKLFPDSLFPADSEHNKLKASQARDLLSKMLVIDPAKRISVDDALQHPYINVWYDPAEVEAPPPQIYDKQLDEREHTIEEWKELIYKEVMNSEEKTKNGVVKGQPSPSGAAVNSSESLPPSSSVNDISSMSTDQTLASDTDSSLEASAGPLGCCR
# [3] = test system: canonical Wnt signaling activated by β-catenin constructs; test: ST-Luc reporter in HEK293 cells co-transfected with β-catenin variants; conditions: 10 or 25 μM, 24 h
# Experimental: These included full-length β-catenin, β-catenin with point mutations at N-terminal phosphorylation sites (dominant active, da-Cat), N-terminal deletion of β-catenin (ΔN-Cat) as another dominant active form, and β-catenin C-terminal transactivation domain fused to LEF-1 (CLEF) functioning as dominant active LEF-1. Plasmid amounts used for transfections were diminished to nanograms per 48-well plate to obtain a pathway induction in the range of 10-20 fold.
# Transfection was performed as described in Example 22, but using β-catenin variants co-transfected in the following plasmid combinations:
# 1) 0.215 μg SuperTOPFlash+0.02 μg Renilla+0.015 μg β-catenin;
# 2) 0.23 μg SuperTOPFlash+0.02 μg Renilla+0.2 ng da-Cat (dominant active β-catenin (S33, 37, 41 and 45A mutated);
# 3) 0.23 μg SuperTOPFlash+0.02 μg Renilla+0.2 ng ΔN-Cat (N-terminal deleted β-catenin; and
# 4) 0.23 μg SuperTOPFlash+0.02 μg Renilla+0.2 ng CLEF (β-catenin transactivation domain fused to LEF-1).
smiles,measurement,setting,value
COc1ccc(-n2c(SCc3nc(-c4ccc(C)cc4)no3)nnc2-c2ccncc2)cc1 [Compound 1],Degree of modulation: cyclin B2,SW480 cells [1],− (moderate down-regulation (log^2 ratio of between −0.5 and −1.0))
same,Degree of modulation: cyclin-dependent kinase 8,SW480 cells [1],− (moderate down-regulation (log^2 ratio of between −0.5 and −1.0))
same,"Degree of modulation: cyclin-dependent kinase inhibitor 1B (p27, Kip1)",SW480 cells [1],− (moderate down-regulation (log^2 ratio of between −0.5 and −1.0))
same,"Degree of modulation: cysteine-rich, angiogenic inducer, 61",SW480 cells [1],−−− (very strong down-regulation (log^2 ratio of between −1.5 and −2))
same,"Degree of modulation: disabled homolog 2, mitogen-responsive phosphoprotein (Drosophila)",SW480 cells [1],− (moderate down-regulation (log^2 ratio of between −0.5 and −1.0))
same,"Degree of modulation: dynein, axonemal, heavy chain 3",SW480 cells [1],− (moderate down-regulation (log^2 ratio of between −0.5 and −1.0))
same,"Degree of modulation: dynein, axonemal, heavy chain 5",SW480 cells [1],+ (moderate up-regulation (log^2 ratio of between 0.5 and 1.0))
same,"Degree of modulation: dynein, light chain, LC8-type 2",SW480 cells [1],− (moderate down-regulation (log^2 ratio of between −0.5 and −1.0))
same,"Degree of modulation: dynein, light chain, roadblock-type 1",SW480 cells [1],− (moderate down-regulation (log^2 ratio of between −0.5 and −1.0))
same,Degree of modulation: ephrin-A4,SW480 cells [1],− (moderate down-regulation (log^2 ratio of between −0.5 and −1.0))
same,Degree of modulation: ephrin-B2,SW480 cells [1],++ (strong up-regulation (log^2 ratio of between 1.0 and 1.5))
same,"Degree of modulation: epidermal growth factor receptor (erythroblastic leukemia viral (v-erb-b) oncogene homolog, avian)",SW480 cells [1],+ (moderate up-regulation (log^2 ratio of between 0.5 and 1.0))
same,Degree of modulation: ets variant gene 3,SW480 cells [1],−− (strong down-regulation (log^2 ratio of between −1.0 and −1.5))
same,Degree of modulation: fibroblast growth factor 20,SW480 cells [1],− (moderate down-regulation (log^2 ratio of between −0.5 and −1.0))
same,Degree of modulation: forkhead box F1,SW480 cells [1],+ (moderate up-regulation (log^2 ratio of between 0.5 and 1.0))
same,Degree of modulation: forkhead box M1,SW480 cells [1],− (moderate down-regulation (log^2 ratio of between −0.5 and −1.0))
same,Degree of modulation: frizzled homolog 2 (Drosophila),SW480 cells [1],−− (strong down-regulation (log^2 ratio of between −1.0 and −1.5))
same,Degree of modulation: interleukin 8,SW480 cells [1],++ (strong up-regulation (log^2 ratio of between 1.0 and 1.5))
same,Degree of modulation: low density lipoprotein receptor-related protein 5-like,SW480 cells [1],+ (moderate up-regulation (log^2 ratio of between 0.5 and 1.0))
same,"Degree of modulation: matrix metallopeptidase 7 (matrilysin, uterine)",SW480 cells [1],− (moderate down-regulation (log^2 ratio of between −0.5 and −1.0))
same,Degree of modulation: met proto-oncogene (hepatocyte growth factor receptor),SW480 cells [1],+ (moderate up-regulation (log^2 ratio of between 0.5 and 1.0))
same,Degree of modulation: mitogen-activated protein kinase kinase kinase kinase 1,SW480 cells [1],− (moderate down-regulation (log^2 ratio of between −0.5 and −1.0))
same,Degree of modulation: nitric oxide synthase 3 (endothelial cell),SW480 cells [1],+++ (very strong up-regulation (log^2 ratio of between 1.5 and 2))
same,"Degree of modulation: origin recognition complex, subunit 1-like (yeast)",SW480 cells [1],− (moderate down-regulation (log^2 ratio of between −0.5 and −1.0))
same,Degree of modulation: p53 and DNA damage regulated 1,SW480 cells [1],− (moderate down-regulation (log^2 ratio of between −0.5 and −1.0))
same,Degree of modulation: paired box 6,SW480 cells [1],− (moderate down-regulation (log^2 ratio of between −0.5 and −1.0))
same,Degree of modulation: paired related homeobox 2,SW480 cells [1],− (moderate down-regulation (log^2 ratio of between −0.5 and −1.0))
same,Degree of modulation: patched homolog 1 (Drosophila),SW480 cells [1],− (moderate down-regulation (log^2 ratio of between −0.5 and −1.0))
same,Degree of modulation: pituitary tumor-transforming 1,SW480 cells [1],− (moderate down-regulation (log^2 ratio of between −0.5 and −1.0))
same,"Degree of modulation: plasminogen activator, urokinase",SW480 cells [1],+ (moderate up-regulation (log^2 ratio of between 0.5 and 1.0))
same,"Degree of modulation: plasminogen activator, urokinase receptor",SW480 cells [1],+ (moderate up-regulation (log^2 ratio of between 0.5 and 1.0))
same,Degree of modulation: runt-related transcription factor 2,SW480 cells [1],− (moderate down-regulation (log^2 ratio of between −0.5 and −1.0))
same,Degree of modulation: sal-like 4 (Drosophila),SW480 cells [1],+ (moderate up-regulation (log^2 ratio of between 0.5 and 1.0))
same,Degree of modulation: sex comb on midleg-like 1 (Drosophila),SW480 cells [1],− (moderate down-regulation (log^2 ratio of between −0.5 and −1.0))
same,Degree of modulation: snail homolog 2 (Drosophila),SW480 cells [1],++ (strong up-regulation (log^2 ratio of between 1.0 and 1.5))
same,Degree of modulation: topoisomerase (DNA) II alpha 170 kDa,SW480 cells [1],− (moderate down-regulation (log^2 ratio of between −0.5 and −1.0))
same,"Degree of modulation: tumor necrosis factor receptor superfamily, member 19",SW480 cells [1],− (moderate down-regulation (log^2 ratio of between −0.5 and −1.0))
same,IC50,SW480 cells [2],~11.5 µM
same,activity at 10 µM,PTP MEG1(h),92%
same,activity at 10 µM,CDK6/cyclinD3(h),94%
same,activity at 10 µM,eEF-2K(h),117%
same,activity at 10 µM,IRAK4(h),98%
same,activity at 10 µM,JNK3(h),93%
same,activation of canonical Wnt signaling by full-length β-catenin,[3],reduced
same,activation of the pathway by CLEF,[3],not significantly antagonized
same,activation of the pathway by da-Cat,[3],not significantly antagonized
same,activation of the pathway by ΔN-Cat,[3],not significantly antagonized
